Experimental data as given in a melting point compilation (Tetko et al.; mined from patent text by program, amines drawn as free bases though some values may be those of a salt).

Row | Structure (SMILES) | melting point [°C]
1 | CC1(C)C=NC(C(NC(c2ccccc2)(c2ccccc2)c2ccccc2)C(=O)O)S1 (centres undefined) | 180 to 182
2 | CCOC(=O)c1sc(Oc2ccccc2)c2c1CCC(C(OCC)OCC)C2=O (centres undefined) | 73 to 74
3 | COCCOc1cc2ncc(C#N)c(C)c2cc1OC | 188 to 193
4 | Cc1cc(NC(=O)OC(C)(C)C)c(C)c(C)c1O | 158 to 161
5 | CC(C)(C)OC(=O)NC[C@@H]1CNC(=O)O1 | 116
6 | Cc1nn(-c2ccc(Cl)c3c2CC(C)O3)c(=O)[nH]1 (centres undefined) | 208 to 209
7 | C1CCc2c(c(N3CCCC3)nn3nnnc23)C1 | 272 to 273
8 | CCCCCCCCCCCCCCCCO[C@@H]1CCCO[C@H]1COP(=O)([O-])OCC[N+](C)(C)C (relative stereo) | 85 to 92
9 | CC1(C)CC(=O)C(C(=O)c2ccc(S(C)(=O)=O)cc2[N+](=O)[O-])C(=O)C1 | 156 to 158
10 | CC(=O)OC1CSC(Oc2ccc(-c3ccc(C#N)nc3)nc2)C(OC(C)=O)C1OC(C)=O (centres undefined) | 247
11 | CCOC(=O)c1nc(C(=O)OCC)nc(C(=O)OCC)n1 | 169 to 170
12 | COc1cccc(OC)c1C(=O)P(=S)(CC(C)C)C(=O)c1c(OC)cccc1OC | 145 to 147
13 | CC(C)(C)OC(=O)N1C[C@@H]2[C@H](F)CCC(c3ccccc3)(c3ccccc3)[C@@H]2C1 | 200
14 | O=C1c2cc3c(cc2CCC1(Br)Br)OCC3 | 138 to 142
15 | O=C1NC(=O)C(CCOc2ccccc2)S1 (centres undefined) | 81 to 83
16 | O=CNC(Cl)C(Cl)(Cl)CCl (centres undefined) | 55 to 57
17 | CCC(=O)N1C(=O)OC(C)(C)[C@H]1c1ccccc1 | 60
18 | O=[N+]([O-])c1ccccc1S | 40 to 42
19 | C[C@@H](O)Cn1ncc2ccc(O)c([N+](=O)[O-])c21 | 70 to 74
20 | O=C1CCCc2ccn(-c3ccccc3)c21 | 66 to 68
21 | CCC(CC)Nc1cc(C)nc(Oc2c(C)cc(C)cc2C)c1N | 105 to 107
22 | Cc1ccc(S(=O)(=O)N[C@@H]2COC(C)(C)OC[C@H]2OS(=O)(=O)c2ccc(C)cc2)cc1 (relative stereo) | 200 to 202
23 | CC(C)[Si](C(C)C)(C(C)C)C1c2ccccc2-c2ccccc21 | 122 to 123
24 | CCOC(=O)C(=O)Nc1ccc(Cl)c(C#N)c1 | 182 to 183
25 | CC1C=C2C(=CC=CC23NC(=O)NC3=O)O1 (centres undefined) | 234 to 236
26 | COc1cc2[nH]cc(C(=O)NN3CCNC3=O)c(=O)c2cc1OC | > 300
27 | CN1CCN(CCOc2ccccc2CC(=O)N2C[C@@H]3C(=O)CCC(c4ccccc4)(c4ccccc4)[C@@H]3C2)CC1 (racemic) | 78
28 | CC(C)(C)OC(=O)N[C@H](CNC(=O)Nc1ccccc1)Cc1ccccc1 | 154

Row | Structure (SMILES) | melting point [°C]
29 | O=c1c(Br)c(O)c2cccnc2n1-c1ccccc1 | > 280
30 | CC(=O)SCC(=O)Nc1ccc(C(=O)O)cc1 | 233 to 234
31 | CC(N=Cc1ccc(O)cc1)c1ccc([N+](=O)[O-])cc1 (single isomer, unassigned; (-)) | 118 to 120
32 | CN1C2CCC1CC(c1ccc3ccccc3c1)C2 (centres undefined) | 77 to 79
33 | CC(CO)n1cnc2c(I)ncnc21 (centres undefined) | 193 to 194
34 | CC(C)c1cccc(C(C)C)c1NC(=O)N(C(C)C)C1COc2ccccc2C1 (centres undefined) | 169 to 172
35 | CSCc1noc(C(C)c2ccc(-c3ccccc3)c(F)c2)n1 (centres undefined) | 55.5 to 56
36 | O=c1c(O)c(-c2ccco2)oc2ccccc12 | 173 to 174
37 | COc1c(C(=O)O)cccc1[N+](=O)[O-] | 224 to 226
38 | OC1(c2ccccc2Cc2ccccc2)CCN(CC2CC2)C1 (centres undefined) | 118 to 120
39 | CC(C)(C#N)CNC(=O)c1n[nH]cc1NC(=O)c1ccccn1 | 238 to 240
40 | COC(=O)CCC(=O)Nc1ccc(C(=O)NNC(=O)OC(C)(C)C)cc1 | 111 to 113
41 | Cc1cc(C)cc(C(=O)N(N(C(=O)c2ccc3c(c2C)OCCO3)C(=O)N(C)C)C(C)(C)C)c1 | 60 to 64
42 | CN(CCCCCCO)c1ccc(C=Cc2ccc(S(C)(=O)=O)cc2)cc1 | 113 to 115
43 | CCc1nc(-c2cccc(C#N)c2)c(-c2ccnc(N)c2)s1 | 178 to 179
44 | CN1CCc2cc(O)c(O)c(SCc3ccco3)c2CC1 | 162 to 165
45 | COC(=O)c1cocc1-n1c(OC)nn(C)c1=O | 131 to 133
46 | O=C(Nc1ccccc1)C1=NOCCS1 | 109 to 110
47 | N#CSCC1CC(=O)N(c2ccc(F)cc2)C1=O (centres undefined) | 88
48 | CC(C)CC(NC(=O)C(NC(=O)OCc1ccccc1)C(C(=O)O)C(C)(C)C)C(=O)NC(CCCCNC(=O)OC(C)(C)C)C(=O)O (centres undefined) | 173 to 174
49 | CC1(C)CCOc2cc(O)ccc21 | 88 to 88.5
50 | O=C(SCCCC(=O)N1CCC[C@H]1C(=O)O)c1ccccc1 | 159 to 161
51 | CN1Cc2cncn2-c2ccc(F)c(Cl)c2C1=O | 234 to 235
52 | O=c1[nH]c(NCCSCc2ccco2)ncc1Cc1cccnc1 | 136 to 139
53 | CC(=O)C(=Cc1cccc([N+](=O)[O-])c1)P(=O)(OCC(C)(C)C)OCC(C)(C)C | 139 to 140
54 | CC12CCCc3cc(C(=O)O)cc(c31)CCC2 | 213 to 215
55 | FCc1ccc(-c2cn([C@H]3CN4CCC3CC4)nn2)cc1 | 138

More lines, now with the values ahead:

Row | melting point [°C] | Structure (SMILES)
56 | 249 to 250 | COc1ccc(C(=O)Nc2c(Cl)cncc2Cl)c2c3cc(Cl)ccc3n(Cc3ccc(F)cc3)c12
57 | 180 | CC(C)n1cc(-c2nc(C#N)c(N)nc2-c2ccc(F)c(F)c2)ccc1=O
58 | 131 | C=CCOc1ccc2c(c1)c(C)c(CCC(=O)O)n2Cc1ccc(Cl)cc1
59 | 217 to 218 | COc1ccc(OC)c(CC(=O)CN2N=C(c3ccc(Cl)cc3)c3ccccc3-n3c(C)nnc32)c1
60 | 104 | COc1cc(CO)ccc1NC(C)=O
61 | 128 to 129 | CCOc1cc(C(CC(C)=O)N2C(=O)c3cccc(NC(C)=O)c3C2=O)ccc1OC (centres undefined)
62 | 254 to 256 | COc1ccc(-c2cc3cc(F)c(F)cc3[nH]2)cc1NS(C)(=O)=O
63 | 167 | CCCNC(=O)COC1c2ccccc2C(=O)N1c1ccc2ccc(Cl)nc2n1 (centres undefined)
64 | 164 to 165 | O=C(O)c1c(Oc2ccccc2)cccc1Oc1ccccc1
65 | 165 to 166 | Cc1ccnc(NC(=O)c2c(-c3ccc(F)cc3)c(-c3ccc(F)cc3)cn2C(C)C)n1
66 | 132 to 133 | Cc1c(C)n(Cc2ccccc2)c2ncnc(Nc3cccc(Cl)c3)c12
67 | 136 to 138 | COc1ccc2c(c1)cc(/C=C/c1ccccc1Cl)n2CCC#N
68 | 214 to 243 | CC(=O)Nc1ccc(C(=O)Nc2ccc(C(=O)N3CCCCc4ccccc43)cc2)c(Cl)c1
69 | 195 to 197 | COc1ccc(Nc2nnc(Cc3ccncc3)c3ccccc23)cc1Cl
70 | 208 to 209 | O=C(Nc1ccc(F)cc1F)C1C(=O)N2c3ccccc3Sc3cccc1c32 (centres undefined)
71 | 160 to 163 | Cn1ccnc1-c1ccc(-c2cnc([C@H](Cc3ccccn3)N(C=O)OC(C)(C)C)n2C)cc1
72 | 162 to 167 | Cn1nc2c(-c3ccc(Cl)cc3Cl)cccc2c1C1=NCCO1
73 | 191 to 193 | CCNC(=O)c1cc(C)c(C(c2cc(F)ccc2F)S(=O)(=O)c2ccc(F)cc2)cn1 (centres undefined)
74 | 183 to 185 | CCOc1nc2cccc(C(=O)O)c2n1Cc1ccc(-c2ccccc2-c2nnn[nH]2)cc1
75 | 211 to 214 | O=c1c(-c2cccc(F)c2)c(CNc2ncnc3[nH]cnc23)oc2ccccc12
76 | 82 to 83 | COc1ccc(CC(C#N)c2cc(OC)c(OC)c(OC)c2)cc1 (centres undefined)
77 | 145 to 147 | CCCNCC(O)COc1ccc2c(=O)cc(-c3ccccc3)oc2c1 (centres undefined)

Row | melting point [°C] | Structure (SMILES)
78 | 109 | CCOC(=O)[C@H](Cc1ccc(-c2c(OC)cc(COS(C)(=O)=O)cc2OC)cc1)NC(=O)c1c(Cl)cccc1Cl
79 | 73 to 75 | Cc1cccc(-n2nc(C)cc2-c2ccnc(NCc3ccccc3)c2)c1
80 | 201 to 202 | Oc1ccc(-c2c3ccccc3cc3oc4ccccc4c23)c(O)c1
81 | 178 to 180 | CS(=O)(=O)c1ccc(-n2nc(C(F)(F)F)cc2-c2ccc(-c3cnco3)cc2)cc1
82 | 107 to 109 | O=C1c2ccccc2S(=O)(=O)N1CCCCOc1ccc(O)cc1
83 | 142 to 144 | Cc1ccccc1C(=O)Nc1ccc(-n2nc(C(F)(F)F)cc2C2CC2)c(F)c1
84 | 87 | Cc1c(F)c(Oc2cccc(C(F)(F)F)c2)nc(-c2ccc(C(F)(F)F)cc2)c1F
85 | 142 | COc1c(CC(C(=O)O)C(=O)O)cccc1C(=O)c1ccc(Cl)cc1
86 | 114 | N=C(Cc1nc2cnc3ccc(Cl)cc3c2n1-c1ccccc1Cl)NO
87 | > 300 | CN(C)C=Nc1ccc(-c2cc3c(Nc4cccc(Cl)c4)ncnc3[nH]2)cc1
88 | 205 | CS(=O)(=O)Nc1cncc(C(=NCCc2ccccc2Cl)NC#N)c1
89 | 102 to 103 | Cc1ccccc1CCNC(=O)c1ccc(Br)cc1
90 | 194 to 196 | Nc1c(Nc2ccc(O)cc2)ncnc1-c1ccc(C(F)(F)F)cc1F
91 | 116 to 118 | COCCN(CCOC)C(=O)c1cccc(NC(=O)Oc2ccccc2)c1
92 | 154 to 156 | Cc1nc(C)c2c(n1)N(Cc1ccc(-c3ccccc3-c3nnn[nH]3)cc1)C(=O)C(O)C2 (centres undefined)
93 | 276 to 279 | C[C@H](Cn1ccnc1)NC(=O)c1c[nH]c2ncc(-c3nn(C)c4cc(Cl)ccc34)nc12
94 | 134 to 136 | COc1c(-c2cc3c(s2)CCCC3N=[N+]=[N-])ccc2c(=O)c(C(=O)O)cn(C3CC3)c12 (centres undefined)
95 | 88 to 90 | OC1C=C(c2ccc(C(F)(F)F)cc2)CN(Cc2ccccc2)C1 (centres undefined)
96 | 165 | O=c1ncc(Cl)cn1CSc1ccc([N+](=O)[O-])cc1
97 | 133 to 136 | O=C1NC(=O)C(Cc2ccc(OCCN3CCc4ccccc43)cc2)S1 (centres undefined)
98 | 86 to 88 | COCCOCCOc1ccc2c(c1)S(=O)(=O)N(Cc1ccccc1)C2=O
99 | 110 to 117 | Cc1noc(NS(=O)(=O)c2ccccc2-c2ccc(-c3ncco3)cc2CN(C)C(=O)CCc2ccccc2)c1C
